Data published in patent US7935686B2, “Acyloxyalkyl carbamate prodrugs, methods of synthesis, and use” (XenoPort, Inc., priority 2004, dated 2011).

Tests used:
[1] = animal models (Merino et al.); cited from earlier work
[2] = Prodrug in vitro metabolism, rat plasma; type: in vitro ADME; conditions: 2.0 μM substrate, no cofactors, 37° C.
Description: (§1) The stabilities of prodrugs were evaluated in one or more in vitro systems using a variety of preparations following methods known in the art. Tissues and/or preparations were obtained from commercial sources (e.g., Pel-Freez Biologicals, Rogers, Ark., or GenTest Corporation, Woburn, Mass.). Experimental conditions used for the in vitro studies are described in Table 1. Each preparation was incubated with test compound at 37° C. for one hour. Aliquots (50 μL) were removed at 0, 30, and 60 min and quenched with 0.1% trifluoroacetic acid in acetonitrile. Samples were then centrifuged and analyzed by LC/MS/MS. Stability of prodrugs towards specific enzymes (e.g., peptidases, etc.) were also assessed in vitro by incubation with the purified enzyme: […]

[3] = Prodrug in vitro metabolism, human plasma; type: in vitro ADME; conditions: 2.0 μM substrate, no cofactors, 37° C.
Description: as §1

[4] = Prodrug in vitro metabolism, rat liver S9; type: in vitro ADME; conditions: Rat Liver S9 (0.5 mg/mL), 2.0 μM substrate, NADPH, 37° C.
Description: as §1

[5] = Prodrug in vitro metabolism, human liver S9; type: in vitro ADME; conditions: Human Liver S9 (0.5 mg/mL), 2.0 μM substrate, NADPH, 37° C.
Description: as §1

[6] = Caco-2 homogenate S9 stability; type: in vitro ADME; conditions: Caco-2 S9 (0.5 mg protein per mL), 5 μM prodrug, 37° C.
Description: Caco-2 Homogenate S9 Stability: Caco-2 cells were grown for 21 days prior to harvesting. Culture medium was removed and cell monolayers were rinsed and scraped off into ice-cold 10 mM sodium phosphate/0.15 M potassium chloride, pH 7.4. Cells were lysed by sonication at 4° C. using a probe sonicator. Lysed cells were then transferred into 1.5 mL centrifuge vials and centrifuged at 9000 g for 20 min at 4° C. The resulting supernatant (Caco-2 cell homogenate S9 fraction) was aliquoted into 0.5 mL vials and stored at −80° C. until used.
For stability studies, prodrug (5 μM) was incubated in Caco-2 homogenate S9 fraction (0.5 mg protein per mL) for 60 min at 37° C. Concentrations of intact prodrug and released parent drug were determined at zero time and 60 minutes using LC/MS/MS.

pancreatin = test: Pancreatin stability; type: in vitro ADME, porcine; conditions: 1% (w/v) pancreatin, 5 μM prodrug, pH 7.5, 37° C.
Description: The stabilities of prodrugs were evaluated in one or more in vitro systems using a variety of preparations following methods known in the art. Tissues and/or preparations were obtained from commercial sources (e.g., Pel-Freez Biologicals, Rogers, Ark., or GenTest Corporation, Woburn, Mass.). Experimental conditions used for the in vitro studies are described in Table 1. Each preparation was incubated with test compound at 37° C. for one hour. Aliquots (50 μL) were removed at 0, 30, and 60 min and quenched with 0.1% trifluoroacetic acid in acetonitrile. Samples were then centrifuged and analyzed by LC/MS/MS. Stability of prodrugs towards specific enzymes (e.g., peptidases, etc.) were also assessed in vitro by incubation with the purified enzyme:
Pancreatin Stability: Stability studies were conducted by incubating prodrug (5 μM) with 1% (w/v) pancreatin (Sigma, P-1625, from porcine pancreas) in 0.025 M Tris buffer containing 0.5 M NaCl (pH 7.5) at 37° C. for 60 min. The reaction was stopped by addition of 2 volumes of methanol. After centrifugation at 14,000 rpm for 10 min, the supernatant was removed and analyzed by LC/MS/MS.

SMILES | Percent of Prodrug Remaining after 60 min. [2] | Percent of Prodrug Remaining after 60 min. [3] | Percent of Prodrug Remaining after 60 min. [4] | Percent of Prodrug Remaining after 60 min. [5] | Percent of Prodrug Remaining after 60 min. [6] | Percent of Prodrug Remaining after 60 min. (pancreatin) | absorption following administration into the colon [1]
NCC(CC(=O)O)c1ccc(Cl)cc1 (racemic) [Baclofen, (±)-4-Amino-3-(4-chlorophenyl)butanoic acid] |  |  |  |  |  |  | poorly absorbed
CC(C)C(=O)OC(OC(=O)NCCCP(C)(=O)O)C(C)C (stereo not shown) [Compound 194, 3-{[1-Isobutanoyloxyisobutoxy]carbonylamino}propyl Methylphosphinic Acid] | 38% | 77% | 63% | 66% | 71% | 91% | 
CP(=O)(O)CCCNC(=O)OCOC(=O)c1ccccc1 [Compound 195, 3-{[Benzoyloxymethoxy]carbonylamino}propyl Methylphosphinic Acid] | 100% | 78% | 85% | 64% | 91% | 62% | 

Second part, led by results:

Percent of Prodrug Remaining after 60 min. [2] | Percent of Prodrug Remaining after 60 min. [3] | Percent of Prodrug Remaining after 60 min. [4] | Percent of Prodrug Remaining after 60 min. [5] | Percent of Prodrug Remaining after 60 min. [6] | Percent of Prodrug Remaining after 60 min. (pancreatin) | SMILES | absorption following administration into the colon [1]
40% | 84% | 82% | 81% | 82% | 79% | CC(OC(=O)NCCCP(C)(=O)O)OC(=O)C(C)C (stereo not shown) [Compound 111, 3-{[1-Isobutanoyloxyethoxy]carbonylamino}propyl Methylphosphinic Acid] | 
98% | 97% | 51% | 43% | 82% | 24% | CC(OC(=O)NCCCP(C)(=O)O)OC(=O)C1CCCCC1 (stereo not shown) [Compound 114, 3-{[1-Cyclohexanoyloxyethoxy]carbonylamino}propyl Methylphosphinic Acid] | 
7% | 30% | 67% | 57% | 20% | 20% | CC(C)C(=O)OCOC(=O)NCCCP(C)(=O)O [Compound 115, 3-{[Isobutanoyloxymethoxy]carbonylamino}propyl Methylphosphinic Acid] | 
